Strand notation (5' to 3'): a small letter for the sugar, then the base; units joined by * are phosphorothioate-linked, units joined directly phosphodiester-linked; [ ] holds rarer units or linkages, { } end groups; capitals alone tell only the bases. k = constrained ethyl (cEt); [5mC] = 5-methylcytosine; d = 2'-deoxy (DNA)
Tested on: human SMAD7 mRNA
Assay: Antisense inhibition of human SMAD7 mRNA expression in Hep3B cells by 3-10-3 cEt gapmers, 10,000 nM, electroporation (Example 2)
Format: cell-based
Settings: Hep3B cells, 10,000 nM antisense oligonucleotide, electroporation, approximately 24 hours, RT-PCR primer probe set RTS5062, relative to untreated control cells
Outline: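 qRT-PCR (RTS5062) of SMAD7 mRNA, normalised to RIBOGREEN total RNA, gave percent inhibition relative to untreated controls. Hep3B cells at 20,000 per well received 10,000 nM oligonucleotide by electroporation, with ~24 h treatment.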

| Substance | % Inhibition |
| --- | --- |
| 798929 (antisense kT*kA*kT*dT*dA*dG*d[5mC]*dA*dG*d[5mC]*dA*dA*dA*kG*kT*kA) [compound 798929] | 41% |
| 799930 (antisense kT*k[5mC]*kT*dT*dT*dT*dA*dT*d[5mC]*dA*d[5mC]*dT*dG*kT*k[5mC]*kA) [compound 799930] | 8% |
| 798896 (kG*kG*kG*dT*dG*dT*dA*dG*d[5mC]*dA*d[5mC]*dT*dG*kG*k[5mC]*k[5mC]; antisense) [compound 798896] | 46% |
| 799938 (antisense k[5mC]*kT*k[5mC]*dT*dA*dA*dA*d[5mC]*d[5mC]*dA*dA*d[5mC]*dT*kT*kT*kT) [compound 799938] | 17% |
| 800069 (antisense k[5mC]*kA*kT*dG*dG*d[5mC]*dG*dG*dA*dA*dG*dA*dT*kG*kG*kG) [compound 800069] | 25% |
| 798835 (k[5mC]*kG*kA*dG*dG*d[5mC]*dA*dA*dA*dA*dG*d[5mC]*d[5mC]*kA*kT*kT; antisense) [compound 798835] | 22% |
| 798853 (k[5mC]*k[5mC]*kA*d[5mC]*dA*d[5mC]*dA*d[5mC]*d[5mC]*dA*dT*d[5mC]*d[5mC]*kA*k[5mC]*k[5mC]; antisense) [compound 798853] | 7% |
| 799936 (antisense k[5mC]*kT*kT*dT*dA*dA*dT*dT*dT*d[5mC]*dA*dG*dA*kG*kT*k[5mC]) [compound 799936] | 44% |
| 800055 (antisense kA*kT*kA*dA*dA*d[5mC]*dT*dT*dG*dT*dG*dA*dG*k[5mC]*kG*k[5mC]) [compound 800055] | 8% |
| 798827 (kA*kG*kA*dG*dA*dG*dG*dG*d[5mC]*dT*d[5mC]*d[5mC]*dT*kG*kG*kA; antisense) [compound 798827] | 21% |
| 800014 (kT*kA*kA*dA*dG*d[5mC]*dA*dT*dA*dA*dA*dA*dT*k[5mC]*k[5mC]*kT; antisense) [compound 800014] | 21% |

Same assay, conditions: Hep3B cells, electroporation with 10,000 nM antisense oligonucleotide, approximately 24 hours, RTS5062, percent inhibition of SMAD7 mRNA relative to untreated control cells

| Substance | % Inhibition |
| --- | --- |
| 799741 (antisense kA*kG*kT*dT*dA*dT*d[5mC]*dA*d[5mC]*d[5mC]*d[5mC]*dT*dG*kT*kT*kT) [compound 799741] | 32% |
| 799664 (antisense kG*k[5mC]*k[5mC]*dA*dG*d[5mC]*dA*dA*dG*dG*dA*dT*d[5mC]*kA*kA*kA) [compound 799664] | 8% |
| 799810 (antisense k[5mC]*kT*kT*dA*dT*dT*dG*dT*dT*dT*dT*dT*dG*kT*kT*k[5mC]) [compound 799810] | 14% |

Same assay, conditions: Hep3B cells, electroporation with 10,000 nM antisense oligonucleotide, approximately 24 hours, SMAD7 mRNA by RT-PCR (RTS5062), relative to untreated control cells

| Substance | % Inhibition |
| --- | --- |
| 798815 (k[5mC]*kG*k[5mC]*dA*d[5mC]*d[5mC]*dA*dG*dT*dG*dT*dG*dA*k[5mC]*k[5mC]*kG; antisense) [compound 798815] | 45% |
| 830204 (kG*kT*kA*dT*d[5mC]*d[5mC]*dA*dT*d[5mC]*dA*dA*d[5mC]*dT*kG*k[5mC]*kT; antisense) [compound 830204] | 59% |
| 798722 (antisense k[5mC]*kT*kT*dG*d[5mC]*d[5mC]*d[5mC]*dA*dG*dG*d[5mC]*dA*dG*k[5mC]*kA*kT) [compound 798722] | 0% |
| 799927 (antisense kT*k[5mC]*k[5mC]*d[5mC]*dA*dA*dG*d[5mC]*d[5mC]*dT*dA*d[5mC]*dA*kT*kA*kT) [compound 799927] | 0% |
| 799455 (antisense kT*kG*kT*dT*dA*dA*dA*dG*dA*d[5mC]*dA*dG*dA*kG*kG*kA) [compound 799455] | 55% |
| 799963 (antisense kA*kG*k[5mC]*d[5mC]*dA*dT*dG*dG*d[5mC]*dA*dG*dA*dA*k[5mC]*k[5mC]*k[5mC]) [compound 799963] | 6% |
| 830176 (antisense kA*kT*kT*d[5mC]*dT*d[5mC]*dA*dA*d[5mC]*dA*dG*dA*d[5mC]*k[5mC]*kA*k[5mC]) [compound 830176] | 61% |
| 830023 (antisense kT*k[5mC]*kA*d[5mC]*dA*dT*dG*d[5mC]*dT*dT*dT*dG*d[5mC]*kG*kG*kG) [compound 830023] | 57% |
| 798887 (k[5mC]*kT*kG*dA*dT*d[5mC]*dT*dG*d[5mC]*dA*d[5mC]*dG*dG*kT*kA*kA; antisense) [compound 798887] | 26% |
| 799451 (antisense kA*kA*kA*dG*dA*dA*d[5mC]*dA*d[5mC]*dA*dG*d[5mC]*dA*k[5mC]*kT*kG) [compound 799451] | 41% |
| 830151 (antisense kG*k[5mC]*k[5mC]*dA*dG*dT*dG*dG*dT*dG*dA*d[5mC]*d[5mC]*kT*k[5mC]*k[5mC]) [compound 830151] | 45% |
| 830103 (kA*kA*kG*d[5mC]*d[5mC]*d[5mC]*dG*d[5mC]*dT*d[5mC]*dT*d[5mC]*dA*kG*k[5mC]*k[5mC]; antisense) [compound 830103] | 39% |
| 798738 (antisense k[5mC]*kT*kT*d[5mC]*dA*dG*dA*dT*d[5mC]*d[5mC]*dG*d[5mC]*d[5mC]*kT*k[5mC]*kG) [compound 798738] | 25% |
| 830089 (kA*kA*kG*dA*d[5mC]*d[5mC]*d[5mC]*dT*dG*dT*dA*dA*dG*k[5mC]*kT*kT; antisense) [compound 830089] | 9% |

Same assay, conditions: Hep3B cells, electroporation with 10,000 nM antisense oligonucleotide, approximately 24 hours, primer probe set RTS5062, relative to untreated control cells

| Substance | % inhibition of SMAD7 mRNA expression | % Inhibition |
| --- | --- | --- |
| 799169 (antisense kT*kT*kG*dA*dG*d[5mC]*dT*dA*dA*dG*dA*dA*d[5mC]*kA*kG*kT) [compound 799169] | 0% |  |
| 798940 (antisense kA*kA*kA*dA*d[5mC]*dG*dA*d[5mC]*d[5mC]*dA*dA*dA*dG*kA*kG*kT) [compound 798940] |  | 29% |
| 799198 (antisense kG*kT*k[5mC]*d[5mC]*dT*dT*dT*d[5mC]*dT*d[5mC]*dT*d[5mC]*dT*k[5mC]*kA*kA) [compound 799198] | 17% |  |
| 799195 (antisense k[5mC]*kA*kA*dT*dG*d[5mC]*dT*dA*dA*dA*dT*dT*dT*k[5mC]*k[5mC]*kA) [compound 799195] |  | 43% |
| 799147 (antisense kG*kT*kA*d[5mC]*d[5mC]*dT*dT*dG*dG*dG*dT*dT*dA*kT*kG*kA) [compound 799147] | 28% |  |
| 798789 (kG*kT*kA*dT*d[5mC]*dT*dG*dG*dA*dG*dT*dA*dA*kG*kG*kA; antisense) [compound 798789] | 44% |  |
| 799476 (antisense kG*k[5mC]*kT*d[5mC]*dA*dA*dA*dG*dG*dG*d[5mC]*d[5mC]*dA*k[5mC]*k[5mC]*k[5mC]) [compound 799476] | 0% |  |
| 799128 (antisense k[5mC]*k[5mC]*k[5mC]*dA*dG*dG*dG*dA*d[5mC]*dA*dT*d[5mC]*d[5mC]*k[5mC]*k[5mC]*kG) [compound 799128] | 63% |  |

Same assay, conditions: Hep3B cells, electroporation, 10,000 nM antisense oligonucleotide, approximately 24 hours, RTS5062, relative to untreated control cells

| Substance | % inhibition of SMAD7 mRNA expression |
| --- | --- |
| 799775 (kA*k[5mC]*kA*d[5mC]*dA*dA*dG*dA*dG*dG*dG*dA*dA*kG*k[5mC]*k[5mC]; antisense) [compound 799775] | 22% |
| 799616 (kG*kG*k[5mC]*dT*d[5mC]*d[5mC]*dT*dA*d[5mC]*d[5mC]*d[5mC]*dG*d[5mC]*k[5mC]*k[5mC]*kA; antisense) [compound 799616] | 80% |
| 799661 (antisense k[5mC]*kT*k[5mC]*d[5mC]*dA*d[5mC]*dT*dG*d[5mC]*d[5mC]*dT*d[5mC]*d[5mC]*kT*kA*k[5mC]) [compound 799661] | 44% |
| 799519 (antisense kA*kA*k[5mC]*dT*dT*dA*dA*dG*dT*dA*dG*dA*dG*k[5mC]*kA*kA) [compound 799519] | 44% |
| 799500 (antisense kG*kA*kG*d[5mC]*dA*dG*dA*d[5mC]*dG*dG*dG*d[5mC]*dA*kA*kG*kT) [compound 799500] | 28% |
| 799599 (k[5mC]*k[5mC]*kA*dA*d[5mC]*dT*d[5mC]*dT*dG*dA*dA*d[5mC]*dG*kG*kA*kA; antisense) [compound 799599] | 12% |

Same assay, conditions: SMAD7 mRNA, Hep3B cells, 10,000 nM antisense oligonucleotide, electroporation, approximately 24 hours, primer probe set RTS5062, relative to untreated control cells

| Substance | % Inhibition |
| --- | --- |
| 829774 (antisense kA*kG*kT*dA*dG*dG*dA*d[5mC]*dG*dA*dG*dG*dG*k[5mC]*kG*kG) [compound 829774] | 22% |
| 829745 (antisense k[5mC]*kG*kG*dG*d[5mC]*dG*d[5mC]*dA*d[5mC]*dG*dG*d[5mC]*dT*k[5mC]*k[5mC]*kT) [compound 829745] | 19% |
| 772762 (kA*kT*kT*dT*dT*dG*d[5mC]*dT*dA*d[5mC]*d[5mC]*dT*dA*kA*kT*kG; antisense) [compound 772762] | 11% |
| 790609 (kG*kT*k[5mC]*dT*dA*dA*dA*d[5mC]*dA*dT*dG*d[5mC]*dT*k[5mC]*kA*kT; antisense) [compound 790609] | 40% |

Same assay, conditions: SMAD7 mRNA, Hep3B cells, electroporation with 10,000 nM antisense oligonucleotide, approximately 24 hours, primer probe set RTS5062, relative to untreated control cells

| Substance | % Inhibition |
| --- | --- |
| 829851 (antisense k[5mC]*kT*kT*dG*dT*dT*dG*dT*d[5mC]*d[5mC]*dG*dA*dA*kT*kT*kG) [compound 829851] | 31% |
| 829867 (antisense kT*kG*kT*dG*dG*d[5mC]*dG*dG*dA*d[5mC]*dT*dT*dG*kA*kT*kG) [compound 829867] | 22% |
| 829846 (antisense kG*kT*k[5mC]*d[5mC]*dG*dA*dA*dT*dT*dG*dA*dG*d[5mC]*kT*kG*kT) [compound 829846] | 29% |
| 829844 (antisense k[5mC]*kG*kA*dA*dT*dT*dG*dA*dG*d[5mC]*dT*dG*dT*k[5mC]*k[5mC]*kG) [compound 829844] | 49% |
